The values that follow come from patent US10899737B2, “Piperazine carbamates and methods of making and using same” (Lundbeck La Jolla Research Center, Inc., priority 2016, dated 2021).

Molecules are shown by their SMILES.

Test [1] concerns the target T1, MAGL (Homo sapiens, UniProt Q99685).
T1 construct: Proteomes (human prefrontal cortex or cell membrane fractions); from tissue
T1 sequence (Q99685 1-303): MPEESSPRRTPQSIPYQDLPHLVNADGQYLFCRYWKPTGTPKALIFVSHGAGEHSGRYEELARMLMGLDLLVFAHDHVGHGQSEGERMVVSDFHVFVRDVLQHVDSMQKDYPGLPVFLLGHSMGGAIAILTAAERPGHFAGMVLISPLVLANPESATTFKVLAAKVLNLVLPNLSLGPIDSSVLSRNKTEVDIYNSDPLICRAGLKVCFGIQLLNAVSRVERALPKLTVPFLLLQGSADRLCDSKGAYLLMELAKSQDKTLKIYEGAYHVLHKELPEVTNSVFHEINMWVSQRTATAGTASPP
Description: In vitro competitive activity-based protein profiling (human), MAGL. In kind it is biochemical. The settings on record: for inhibition at 1 µM: 1 μM inhibitor, human proteome, 30 min preincubation at 37° C, read-out: MAGL % inh. 1 μM (human); for IC50: human PC3. The essentials: (§1)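 Human prefrontal cortex or cell membrane proteomes (1.0-2.0 mg/mL protein) preincubated 30 min at 37° C with inhibitor, then labeled 30 min RT with FP-Rh or JW912 probe. After SDS-PAGE, activity taken from fluorescent band intensity for each enzyme.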

Test [2] has as its target T2, MAGL (Mus musculus, UniProt O35678).
T2 construct: Proteomes (mouse brain membrane fraction or cell lysates); from tissue; host or cells: mouse brain membrane fraction or cell lysates
T2 sequence (O35678 1-303): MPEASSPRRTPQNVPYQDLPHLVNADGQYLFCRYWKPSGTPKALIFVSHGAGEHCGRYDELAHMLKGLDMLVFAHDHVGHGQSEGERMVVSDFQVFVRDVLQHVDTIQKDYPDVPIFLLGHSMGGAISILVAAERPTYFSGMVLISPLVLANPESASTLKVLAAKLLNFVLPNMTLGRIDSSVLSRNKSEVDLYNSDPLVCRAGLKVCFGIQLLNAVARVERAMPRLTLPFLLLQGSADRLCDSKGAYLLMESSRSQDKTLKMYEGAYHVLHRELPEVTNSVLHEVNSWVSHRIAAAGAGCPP
Description: In vitro competitive activity-based protein profiling (mouse), MAGL. The class given is biochemical. The note with it: for inhibition at 1 µM: 1 μM inhibitor, mouse brain membrane fraction or cell lysates, read-out: MAGL % inh. 1 μM (mouse); for IC50: mouse proteome. The essentials: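 Mouse brain membrane fraction or cell lysate proteomes (50 μL, 1.0 mg/mL total protein) were preincubated with inhibitors at varying concentrations for 30 min at 37° C. FP-Rh (1.0 μL, 50 μM in DMSO) was then added for a further 30 min at 37° C. Samples were quenched with 4× SDS loading buffer and resolved by SDS-PAGE. MAGL activity was quantified from fluorescent gel band intensity using ImageJ 1.49 k.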

Test [3] addresses T2, MAGL. Briefly: Mouse brain proteomes from inhibitor treated mice, MAGL inhibition. The class given is in vivo. The note with it: 5 mg/kg oral gavage, C57Bl/6J mouse brain, 4 h following administration; read-out: MAGL % inh. 5 mg/kg (mouse). The protocol:
Preparation of Mouse Brain Proteomes from Inhibitor Treated Mice.
Inhibitors were administered to wild-type C57Bl/6J by oral gavage in a vehicle of polyethylene glycol. Each animal was sacrificed 4 h following administration and brain proteomes were prepared and analyzed according to previously established methods (See Niphakis, M. J., et al. (2011) ACS Chem. Neurosci. and Long, J. Z., et al. Nat. Chem. Biol. 5:37-44).

Test [4] deals with T3, ABHD6 (Mus musculus, UniProt Q8R2Y0).
T3 construct: Proteomes (mouse brain membrane fraction or cell lysates); from tissue; host or cells: mouse brain membrane fraction or cell lysates
T3 sequence (Q8R2Y0 1-336): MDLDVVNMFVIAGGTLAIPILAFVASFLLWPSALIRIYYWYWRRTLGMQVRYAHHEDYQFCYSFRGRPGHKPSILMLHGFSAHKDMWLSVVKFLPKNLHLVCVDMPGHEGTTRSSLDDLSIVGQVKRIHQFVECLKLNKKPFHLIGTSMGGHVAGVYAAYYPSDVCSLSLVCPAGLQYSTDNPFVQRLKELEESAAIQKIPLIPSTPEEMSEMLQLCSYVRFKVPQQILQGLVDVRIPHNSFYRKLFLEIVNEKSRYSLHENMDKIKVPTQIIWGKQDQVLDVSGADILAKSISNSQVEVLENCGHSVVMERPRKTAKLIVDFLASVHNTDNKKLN
Briefly: In vitro competitive activity-based protein profiling (mouse), ABHD6. The class given is biochemical. The settings on record: 1 μM inhibitor, mouse brain membrane fraction or cell lysates; read-out: ABHD6 % inh. 1 μM (mouse). The essentials:
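Mouse brain membrane proteome or cell lysate (1.0 mg/mL protein) preincubated 30 min at 37 °C with inhibitor, then labelled 30 min at 37 °C with FP-rhodamine probe. Remaining MAGL and ABHD6 activity quantified by in-gel fluorescence band intensity after SDS-PAGE; values are % inhibition at 1 μM.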

In test [5] the target is T4, ABHD6 (Homo sapiens, UniProt Q9BV23).
T4 construct: Proteomes (human prefrontal cortex or cell membrane fractions); endogenous in cells; human prefrontal cortex
T4 sequence (Q9BV23 1-337): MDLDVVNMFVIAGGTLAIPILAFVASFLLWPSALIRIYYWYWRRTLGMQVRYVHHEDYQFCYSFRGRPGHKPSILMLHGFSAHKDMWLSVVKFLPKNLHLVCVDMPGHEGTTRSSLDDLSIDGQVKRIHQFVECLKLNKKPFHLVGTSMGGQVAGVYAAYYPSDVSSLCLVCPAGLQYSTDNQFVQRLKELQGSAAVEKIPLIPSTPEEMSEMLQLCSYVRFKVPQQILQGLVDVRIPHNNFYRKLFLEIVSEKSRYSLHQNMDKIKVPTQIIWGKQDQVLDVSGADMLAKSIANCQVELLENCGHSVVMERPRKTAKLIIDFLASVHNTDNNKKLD
Description: In vitro competitive activity-based protein profiling (human), ABHD6. The note with it: human PC3. The class given is biochemical. The essentials: as §1

Usually IC50 stands for the concentration at which inhibition is half-maximal. A higher IC50 goes with lower potency. As to `O=C(O)Cn1ccc(-c2cc(Cl)ccc2CN2CCN(C(=O)OC(C(F)(F)F)C(F)(F)F)CC2)n1` [Example 12, 2-(3-(5-Chloro-2-((4-(((1,1,1,3,3,3-hexafluoropropan-2-yl)oxy)carbonyl)piperazin-1-yl)methyl)phenyl)-1H-pyrazol-1-yl)acetic Acid], the inhibition at 1 µM in test [1] was ≥ 75%; in test [2], ≥ 75%; in test [4], 0 to 25%. In addition, the IC50 in test [1] is ≤ 0.1 µM; in test [5], 0.1 to 1 µM. Further, in test [3], the inhibition at 5 mg/kg lay within 0 to 25%.
As to `O=C(O)c1ccsc1-c1cc(C(F)(F)F)ccc1CN1CCN(C(=O)OC(C(F)(F)F)C(F)(F)F)CC1` [Example 8, 2-(2-((4-(((1,1,1,3,3,3-Hexafluoropropan-2-yl)oxy)carbonyl)piperazin-1-yl)methyl)-5-(trifluoromethyl)phenyl)thiophene-3-carboxylic Acid], the inhibition at 1 µM was ≥ 75% in test [1], ≥ 75% in test [2] and 25 to 50% in test [4]. The IC50 in test [1] was ≤ 0.1 µM; in test [5] it was 1 to 10 µM. The inhibition at 5 mg/kg in test [3] is ≥ 75%.
In the case of `O=C(O)CN1CC2(CCN(c3cc(C(F)(F)F)ccc3CN3CCN(C(=O)OC(C(F)(F)F)C(F)(F)F)CC3)CC2)C1` [Example 21, 2-(7-(2-((4-(((1,1,1,3,3,3-Hexafluoropropan-2-yl)oxy)carbonyl)piperazin-1-yl)methyl)-5-(trifluoromethyl)phenyl)-2,7-diazaspiro[3.5]nonan-2-yl)acetic Acid], the inhibition at 1 µM in test [1] was ≥ 75%; in test [2], ≥ 75%; in test [4], 0 to 25%. The IC50 in test [1] is ≤ 0.1 µM; in test [2], ≤ 0.1 µM; in test [5], 1 to 10 µM. In addition, the inhibition at 5 mg/kg in test [3] was 0 to 25%.
Turning to `O=C(O)CN1CCCC12CCN(c1cc(C(F)(F)F)ccc1CN1CCN(C(=O)OC(C(F)(F)F)C(F)(F)F)CC1)CC2` [Example 20, 2-(8-(2-((4-(((1,1,1,3,3,3-Hexafluoropropan-2-yl)oxy)carbonyl)piperazin-1-yl)methyl)-5-(trifluoromethyl)phenyl)-1,8-diazaspiro[4.5]decan-1-yl)acetic Acid], the values for the inhibition at 1 µM in test [1], in test [2] and in test [4] were ≥ 75%, ≥ 75% and 0 to 25%, respectively. Also, the values for the IC50 in test [1] and in test [5] were ≤ 0.1 µM and 1 to 10 µM, respectively. For the same molecule, in test [3], the inhibition at 5 mg/kg was 0 to 25%.
As for `O=C(O)CN1CCC2(CCN(c3cc(C(F)(F)F)ccc3CN3CCN(C(=O)OC(C(F)(F)F)C(F)(F)F)CC3)CC2)C1` [Example 18, 2-(8-(2-((4-(((1,1,1,3,3,3-Hexafluoropropan-2-yl)oxy)carbonyl)piperazin-1-yl)methyl)-5-(trifluoromethyl)phenyl)-2,8-diazaspiro[4.5]decan-2-yl)acetic Acid], the inhibition at 1 µM in test [1] is ≥ 75%; in test [2], ≥ 75%; in test [4], 50 to 75%. Further, the values for the IC50 in test [1], in test [2] and in test [5] were ≤ 0.1 µM, ≤ 0.1 µM and 1 to 10 µM, respectively. The inhibition at 5 mg/kg in test [3] was 0 to 25%.
On to `O=C(OC(C(F)(F)F)C(F)(F)F)N1CCN(Cc2ccc(C(F)(F)F)cc2C2(C(=O)O)CCCC2)CC1` [Example 4, 1-(2-((4-(((1,1,1,3,3,3-Hexafluoropropan-2-yl)oxy)carbonyl)piperazin-1-yl)methyl)-5-(trifluoromethyl)phenyl)cyclopentane-1-carboxylic Acid], for which the figures for the inhibition at 1 µM in test [1], in test [2] and in test [4] were ≥ 75%, ≥ 75% and 0 to 25%, respectively. For the same molecule, the IC50 is ≤ 0.1 µM in test [1], ≤ 0.1 µM in test [2] and 1 to 10 µM in test [5]. The inhibition at 5 mg/kg in test [3] is ≥ 75%.
